Earlier results in patent publication US5547866A (priority 1994, dated 1996).

System: breast, lung and other cancers
Conditions: background

CC(=O)O[C@H]1C(=O)[C@@]2(C)[C@H]([C@H](OC(=O)c3ccccc3)[C@]3(O)C[C@H](OC(=O)[C@H](O)[C@@H](NC(=O)c4ccccc4)c4ccccc4)C(C)=C1C3(C)C)[C@]1(OC(C)=O)CO[C@@H]1C[C@@H]2O [taxol]
activity against breast, lung and other cancers: shown activity against breast, lung and other cancers
